In general, inhibition refers to the percentage by which the read-out fell short of the control. Lower therefore signals a response near the control.

The target in assay [1] is T1, Prostaglandin G/H synthase 2 (Homo sapiens) (UniProt P35354).
T1 sequence (whole entry): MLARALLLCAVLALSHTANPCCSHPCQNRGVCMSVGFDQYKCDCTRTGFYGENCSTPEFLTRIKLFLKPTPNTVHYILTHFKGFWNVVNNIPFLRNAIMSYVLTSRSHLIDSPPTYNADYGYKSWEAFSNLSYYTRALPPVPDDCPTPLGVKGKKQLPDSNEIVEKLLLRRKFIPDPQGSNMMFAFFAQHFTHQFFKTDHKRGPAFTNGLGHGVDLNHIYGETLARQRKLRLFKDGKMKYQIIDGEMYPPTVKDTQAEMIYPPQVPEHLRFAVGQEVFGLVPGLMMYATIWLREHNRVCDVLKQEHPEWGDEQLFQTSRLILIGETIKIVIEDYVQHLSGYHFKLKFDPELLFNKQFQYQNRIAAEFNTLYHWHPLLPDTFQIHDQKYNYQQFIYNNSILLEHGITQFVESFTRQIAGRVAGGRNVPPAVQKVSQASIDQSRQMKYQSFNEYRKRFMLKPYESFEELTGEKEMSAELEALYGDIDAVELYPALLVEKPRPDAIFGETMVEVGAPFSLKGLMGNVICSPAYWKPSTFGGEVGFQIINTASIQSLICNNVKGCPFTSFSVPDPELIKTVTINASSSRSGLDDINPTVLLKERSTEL
In words: Inhibition of COX2.

For assay [2], the target named is T2, Prostaglandin G/H synthase 1 (Ovis aries) (UniProt P05979).
T2 sequence (whole entry): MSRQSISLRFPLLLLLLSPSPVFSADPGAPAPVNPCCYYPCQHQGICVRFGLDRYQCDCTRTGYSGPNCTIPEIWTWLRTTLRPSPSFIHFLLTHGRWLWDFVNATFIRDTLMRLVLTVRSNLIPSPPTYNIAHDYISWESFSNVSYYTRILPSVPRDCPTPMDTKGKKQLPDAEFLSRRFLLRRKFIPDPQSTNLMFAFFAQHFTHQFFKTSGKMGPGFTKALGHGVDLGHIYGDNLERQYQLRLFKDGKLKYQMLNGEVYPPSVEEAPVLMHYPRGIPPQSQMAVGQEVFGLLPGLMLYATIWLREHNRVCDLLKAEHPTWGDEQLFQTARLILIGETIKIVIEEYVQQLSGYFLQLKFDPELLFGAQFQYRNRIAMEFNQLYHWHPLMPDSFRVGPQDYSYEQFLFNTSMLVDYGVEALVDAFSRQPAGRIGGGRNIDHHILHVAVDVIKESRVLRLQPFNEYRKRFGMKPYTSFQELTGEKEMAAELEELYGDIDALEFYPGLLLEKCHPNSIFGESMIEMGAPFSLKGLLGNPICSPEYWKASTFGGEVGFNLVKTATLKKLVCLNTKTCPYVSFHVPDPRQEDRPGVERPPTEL
The settings on record: 115 nM.
Description: Inhibition of ovine COX1 under saturated substrate level preincubated at 115 nM for 17 mins by TLC

Activity calls are given as the source filed them. The calls are words filed in the database; no cut-off is given here.

In the case of `COc1ccc2c(c1)c(CC(=O)O)cn2C(=O)c1ccc(Cl)cc1`, in assay [1], the result was inactive.
In assay [2], `CSc1ccc(/C=C2/C=C(CC(=O)O)c3cc(F)ccc32)cc1` showed an inhibition of 20%.
Same read-out and setting: to `CSc1ccc(/C=C2/C(C)=C(CC(=O)O)c3cc(F)ccc32)cc1` belongs 75%.

The record behind these values is ChEMBL document CHEMBL1158428, “The influence of double bond geometry in the inhibition of cyclooxygenases by sulindac derivatives” (Bioorg Med Chem Lett, 2009).
